Laboratory results reported in patent US20100093726A1 (Giuseppe CAMPIANI, priority 2007, published 2010).

Assays:
[1] = Cytotoxicity on Daudi cells; format: cell-based; conditions: human, Daudi cells (human lymphoblastoid cell line); read-out: TC50 (μM) Daudi cells
[2] = Cytotoxicity on normal human lymphocytes; format: cell-based; conditions: normal human lymphocytes PHA-stimulated; read-out: TC50 (μM) Normal human lymphocytes
[3] = tested on: P. falciparum K1; assay: microbe, parasite or virus in culture; format: cell-based; conditions: Plasmodium falciparum, K1, read-out: IC50 (nM) K1
Experimental: (§1) Some of the synthesized compounds were tested in vitro against two different strains of P. falciparum, namely 3D7, NF54 and D10 (CQ-S strain) and K1 and W2 (CQ-R strain).

[4] = tested on: P. falciparum W2; assay: microbe, parasite or virus in culture; format: cell-based; conditions: Plasmodium falciparum, W2, read-out: IC50 (nM) W2
Experimental: as §1

[5] = tested on: P. falciparum NF54; assay: In vitro antiplasmodial activity, P. falciparum NF54 (CQ-S clone); format: cell-based; conditions: Plasmodium falciparum, NF54, read-out: IC50 (nM) NF54
Experimental: as §1

[6] = tested on: P. falciparum D10; assay: In vitro antiplasmodial activity, P. falciparum D10 (CQ-S clone); format: cell-based; conditions: Plasmodium falciparum, D10, read-out: IC50 (nM) D10
Experimental: as §1

[7] = Cytotoxicity on NSO cells; format: cell-based; conditions: mouse, NSO cells (plasmocytoma murine cell line); read-out: TC50 (μM) NSO cells
[8] = tested on: Candida parapsilosis ATCC ® 22019; assay: Antifungal susceptibility (CLSI broth dilution), Candida parapsilosis; format: cell-based; conditions: CLSI protocol, quality control strain
Description: (§2) (1) National Committee for Clinical Laboratory Standards. (2002). Reference method for broth dilution antifungal susceptibility testing of yeasts—Second Edition: Approved Standard, M27-A2. NCCLS, Wayne, Pa.; and
(§3) (2) National Committee for Clinical Laboratory Standards. Reference method for broth dilution antifungal susceptibility testing of filamentous fungi: Approved Standard, M38-A. 2002; NCCLS, Wayne, Pa.

[9] = tested on: Aspergillus flavus ATCC ® 204304; assay: Antifungal susceptibility (CLSI broth dilution), Aspergillus flavus; format: cell-based; conditions: CLSI protocol, reference strain
Description: as §2, §3

[10] = tested on: Candida glabrata MGMI 2; assay: Antifungal susceptibility (CLSI broth dilution), Candida glabrata; format: cell-based; conditions: CLSI protocol, clinical isolate
Description: as §2, §3

[11] = tested on: P. falciparum 3D7; assay: In vitro antiplasmodial activity, P. falciparum 3D7 (CQ-S clone); format: cell-based; conditions: Plasmodium falciparum, 3D7, read-out: IC50 (nM) 3D7
Experimental: as §1

[12] = tested on: KB cell (human carcinoma of the nasopharynx cell line); assay: Cytotoxicity on KB cells; format: cell-based
[13] = tested on: Candida albicans MGMI 1; assay: Antifungal susceptibility (CLSI broth dilution), Candida albicans; format: cell-based; conditions: CLSI protocol, clinical isolate
Description: as §2, §3

[14] = tested on: yeast and filamentous fungi; assay: Antifungal activity, overall statement; format: cell-based; conditions: yeast and filamentous fungi of Table 4
[15] = tested on: Aspergillus fumigatus MGMI 4; assay: Antifungal susceptibility (CLSI broth dilution), Aspergillus fumigatus MGMI 4; format: cell-based; conditions: CLSI protocol, clinical isolate
Description: as §2, §3

[16] = tested on: P. Chabaudi AS; assay: In vivo activity against P. chabaudi; conditions: per os; for P. Chabaudi AS (% inhibition at 50 mg/Kg): single dose of 50 mg/Kg
[17] = tested on: Cryptococcus neoformans MGMI 3; assay: Antifungal susceptibility (CLSI broth dilution), Cryptococcus neoformans; format: cell-based; conditions: CLSI protocol, clinical isolate
Description: as §2, §3

[18] = tested on: Candida krusei ATCC ® 6258; assay: Antifungal susceptibility (CLSI broth dilution), Candida krusei; format: cell-based; conditions: CLSI protocol, quality control strain
Description: as §2, §3

[19] = tested on: Aspergillus fumigatus MGMI 5; assay: Antifungal susceptibility (CLSI broth dilution), Aspergillus fumigatus MGMI 5 (ITRA resistant); format: cell-based; conditions: for antifungal susceptibility value (MIC), Aspergillus fumigatus MGMI 5: CLSI protocol, clinical isolate, itraconazole resistant
Description: as §2, §3

[20] = tested on: β-hematin formation (hemin); assay: BHIA (β-hematin inhibitory activity) assay; format: biochemical; conditions: hemin in dimethyl sulfoxide-acetate buffer at pH 5.0, 37° C., 18 h
[21] = tested on: P. Berghei ANKA; assay: In vivo activity against P. berghei; conditions: doses up to 100 mg/Kg
Experimental: The experiment was performed at a single dose of 50 mg/Kg. ED50 was determined for 9a in P. berghei ANKA. All compounds were adminstered per os.

| Compound | CC50 [1] | CC50 [2] | IC50 [3] | IC50 [4] | IC50 [5] | IC50 [6] | CC50 [7] | antifungal susceptibility value (MIC), Candida parapsilosis ATCC 22019 [8] | antifungal susceptibility value (MIC), Aspergillus flavus ATCC 204304 [9] | antifungal susceptibility value (MIC), Candida glabrata MGMI 2 [10] | IC50 [11] | TC50 (μM) KB cell [12] | antifungal susceptibility value (MIC), Candida albicans MGMI 1 [13] | antifungal susceptibility value (MIC), Aspergillus fumigatus MGMI 4 [15] | P. Chabaudi AS (% inhibition at 50 mg/Kg) [16] | antifungal susceptibility value (MIC), Cryptococcus neoformans MGMI 3 [17] | antifungal susceptibility value (MIC), Candida krusei ATCC 6258 [18] | antifungal susceptibility value (MIC), Aspergillus fumigatus MGMI 5 [19] | other results |
| --- | --- | --- | --- | --- | --- | --- | --- | --- | --- | --- | --- | --- | --- | --- | --- | --- | --- | --- | --- |
| Clc1cccc(C(Nc2ccnc3cc(Cl)ccc23)c2ccc(CN3CCOCC3)cc2)c1 (racemic) [Compound 9b] | 43.9 µM | 40.8 µM | 259 nM | 220 nM | 155 nM | 142 nM | 44.7 µM | – | – | – | – | – | – | – | – | – | – | – | – |
| Clc1ccc(C(Nc2ccnc3cc(Cl)ccc23)c2ccc(CN3CCCC3)cc2)cc1 (racemic) [Compound 9e] | 8.65 µM | 17.3 µM | 9 nM | 72.1 nM | 15 nM | 45.8 nM | 8.65 µM | 16 | >32 | >32 | 3.7 nM | 19.61 µM | >32 | >32 | 99.5% | 16 | >32 | >32 | anti-fungal activity (in words) [14]: lack of anti-fungal activity |
| FC(F)(F)c1ccc2c(NC(c3cccc(Cl)c3)c3ccc(CN4CCOCC4)c(Cl)c3)ccnc2c1 (racemic) [Compound 9j] | – | – | 375 nM | – | 163 nM | – | – | – | – | – | – | – | – | – | – | – | – | – | – |
| FC(F)(F)c1ccc2c(NC(c3ccc(Cl)cc3)c3ccc(CN4CCCC4)cc3)ccnc2c1 (racemic) [Compound 9k] | 14.1 µM | 24.2 µM | 30 nM | 90.5 nM | 20 nM | 61.5 nM | 12.1 µM | 16 | >32 | >32 | 0.2 nM | 5.49 µM | 16 | >32 | 99.6% | 16 | >32 | >32 | anti-fungal activity (in words) [14]: lack of anti-fungal activity |
| Clc1ccc(C(Nc2ccnc3cc(Cl)ccc23)(c2ccccc2)c2ccc(CN3CCCC3)cc2)cc1 (racemic) [Compound 15a] | 16.7 µM | 18.6 µM | 22 nM | – | – | – | 14.9 µM | – | – | – | 3 nM | – | – | – | 99.9% | – | – | – | – |
| CCN(CC)Cc1cc(Nc2ccnc3cc(Cl)ccc23)ccc1O [Amodiaquine] | – | – | – | – | – | – | – | – | – | – | – | – | – | – | – | – | – | – | β-hematin inhibitory activity IC50 [20]: 0.79 ± 0.01 Molar equivalents of compound relative to hemin |
| Clc1ccccc1C(c1ccccc1)(c1ccccc1)n1ccnc1 [CLT, clotrimazole, reference compound] | – | – | – | – | – | – | – | 2 µg/mL | 4 µg/mL | – | – | 88.1 µM | 0.03 µg/mL | 4 µg/mL | 6.0% | 2 µg/mL | – | 4 µg/mL | activity against P. berghei in vivo [21]: not active |
| CCN(CC)CCCC(C)Nc1ccnc2cc(Cl)ccc12 (centres unmarked) [CQ, chloroquine, reference compound] | – | – | 260 nM | 280 nM | 7 nM | 22 nM | – | – | – | – | 10 nM | 207.0 µM | – | – | – | – | – | – | β-hematin inhibitory activity IC50 [20]: 0.91 ± 0.23 Molar equivalents of compound relative to hemin; P. Chabaudi AS (% inhibition) ([16]; 10 mg/Kg): 100 (10 mg/Kg) % |
| CCC(C)n1ncn(-c2ccc(N3CCN(c4ccc(OCC5COC(Cn6cncn6)(c6ccc(Cl)cc6Cl)O5)cc4)CC3)cc2)c1=O (centres unmarked) [ITRA, itraconazole, reference compound] | – | – | – | – | – | – | – | 0.125 µg/mL | 0.06 µg/mL | 32 µg/mL | – | – | 0.25 µg/mL | 0.06 µg/mL | – | 0.25 µg/mL | 0.25 µg/mL | > 32 µg/mL | MIC ([19]; Aspergillus fumigatus, MGMI5, strain description in text, itraconazole resistant isolate): > 16 µg/mL |
